Numbered stars: 1 amine (or outer) side, 2 acyl side, 3 side chain; on linkers, the order of the positions; unused ones are H or OH. Square brackets hold non-standard residues; d marks the D form. Peptide text beside a SMILES is read from it. * marks the point of attachment. Tyr(3,5-(NO2)2) = N[C@@H](Cc1cc([N+](=O)[O-])c(O)c([N+](=O)[O-])c1)C(=O)O; X1 = CC[C@H](C)[C@H](N)C(=O)NC(=O)[C@H](Cc1ccc([N+](=O)[O-])cc1)N*; Tyr(3-NO2) = N[C@@H](Cc1ccc(O)c([N+](=O)[O-])c1)C(=O)O; X2 = CCOP(=O)(Cc1ccc(C[C@H](N[*:1])C(=O)[*:2])cc1)OCC; Phe(4-NO2) = N[C@@H](Cc1ccc([N+](=O)[O-])cc1)C(=O)O; Phe(4-N3) = [N-]=[N+]=Nc1ccc(C[C@H](N)C(=O)O)cc1; Phe(3,4-(OMe)2) = COc1ccc(C[C@H](N)C(=O)O)cc1OC; Phe(3,4-Cl2) = N[C@@H](Cc1ccc(Cl)c(Cl)c1)C(=O)O; Phe(4-COOH) = N[C@@H](Cc1ccc(C(=O)O)cc1)C(=O)O; Phe(4-tBu) = CC(C)(C)c1ccc(C[C@H](N)C(=O)O)cc1; Phe(3-CN) = N#Cc1cccc(C[C@H](N)C(=O)O)c1; Phe(3-OMe) = COc1cccc(C[C@H](N)C(=O)O)c1; Phe(4-CN) = N#Cc1ccc(C[C@H](N)C(=O)O)cc1; Phe(4-Cl) = N[C@@H](Cc1ccc(Cl)cc1)C(=O)O; Phe(4-F) = N[C@@H](Cc1ccc(F)cc1)C(=O)O; Phe(4-I) = N[C@@H](Cc1ccc(I)cc1)C(=O)O; 1Nal = N[C@@H](Cc1cccc2ccccc12)C(=O)O; Bta = N[C@@H](Cc1csc2ccccc12)C(=O)O; Oxazole4CO(2-Me) = Cc1nc(C(=O)*)co1; hTyr = N[C@@H](CCc1ccc(O)cc1)C(=O)O; hPhe = N[C@@H](CCc1ccccc1)C(=O)O; 3Pal = N[C@@H](Cc1cccnc1)C(=O)O; 4Pal = N[C@@H](Cc1ccncc1)C(=O)O; Cha = N[C@@H](CC1CCCCC1)C(=O)O; Nle = CCCC[C@H](N)C(=O)O; 2Furoyl = O=C(c1ccco1)*
target: T1, Proteinase-activated receptor 2 (Homo sapiens, UniProt P55085); assay: Agonist activity at PAR2 expressed in human HT29 cells assessed as intracellular calcium release; format: functional, cell-based, HT-29
T1 sequence (P55085 whole entry): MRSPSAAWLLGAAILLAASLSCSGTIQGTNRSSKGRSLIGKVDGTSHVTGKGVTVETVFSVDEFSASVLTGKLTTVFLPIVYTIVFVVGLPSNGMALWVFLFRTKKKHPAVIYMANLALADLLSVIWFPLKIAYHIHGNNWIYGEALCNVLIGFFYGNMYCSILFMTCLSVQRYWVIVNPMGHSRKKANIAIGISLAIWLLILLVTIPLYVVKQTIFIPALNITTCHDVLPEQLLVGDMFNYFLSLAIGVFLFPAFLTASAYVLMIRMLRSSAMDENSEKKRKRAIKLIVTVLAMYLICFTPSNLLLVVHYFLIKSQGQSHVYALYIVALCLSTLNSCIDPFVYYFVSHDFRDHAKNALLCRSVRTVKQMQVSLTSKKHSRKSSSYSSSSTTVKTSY

| SMILES | EC50 [µM] |
| --- | --- |
| CC[C@H](C)[C@H](NC(=O)[C@H](CC(C)C)NC(=O)c1ccco1)C(=O)NCC(=O)N[C@@H](CCCNC(=N)N)C(=O)N[C@@H](Cc1ccc([N+](=O)[O-])cc1)C(N)=O (2Furoyl-LIGR[Phe(4-NO2)]-NH2) | 0.17 |
| CC[C@H](C)[C@H](NC(=O)[C@H](CC(C)C)NC(=O)[C@@H](N)CO)C(=O)NCC(=O)N[C@@H](CCCNC(=N)N)C(=O)N[C@@H](CC(C)C)C(=O)N[C@@H](Cc1cccc2ccccc12)C(N)=O (H-SLIGRL[1Nal]-NH2) | 1.1 |
| CC[C@H](C)[C@H](NC(=O)[C@H](COc1ccc([N+](=O)[O-])cc1)NC(=O)[C@H](CCCNC(=N)N)NC(=O)CNC(=O)[C@@H](NC(=O)[C@H](CC(C)C)NC(=O)[C@@H](N)CO)[C@@H](C)CC)C(N)=O | 2.8 |
| CC[C@H](C)[C@H](NC(=O)[C@H](CCc1ccc(O)cc1)NC(=O)[C@H](CCCNC(=N)N)NC(=O)CNC(=O)[C@@H](NC(=O)[C@H](CC(C)C)NC(=O)[C@@H](N)CO)[C@@H](C)CC)C(N)=O (H-SLIGR[hTyr]I-NH2) | 3 |
| CC[C@H](C)[C@H](NC(=O)[C@H](CC(C)C)NC(=O)[C@@H](N)CO)C(=O)NCC(=O)N[C@@H](CCCNC(=N)N)C(=O)N[C@@H](Cc1ccc([N+](=O)[O-])cc1)C(N)=O (H-SLIGR[Phe(4-NO2)]-NH2) | 0.6 |
| CC[C@H](C)[C@H](NC(=O)[C@H](CC(C)C)NC(=O)[C@@H](N)CO)C(=O)NCC(=O)N[C@@H](CCCNC(=N)N)C(=O)N[C@@H](CC(C)C)C(=O)N[C@@H](CC(C)C)C(N)=O (H-SLIGRLL-NH2) | 1.2 |
| CC[C@H](C)[C@H](NC(=O)[C@H](CC(C)C)NC(=O)[C@@H](N)CO)C(=O)NCC(=O)N[C@@H](CCCNC(=N)N)C(=O)N[C@@H](CC(C)C)C(=O)N[C@@H](Cc1ccc(O)cc1)C(N)=O (H-SLIGRLY-NH2) | 1.2 |
| CC[C@H](C)[C@H](NC(=O)[C@H](CC(C)C)NC(=O)[C@H](CCCN=C(N)N)NC(=O)CNC(=O)[C@@H](NC(=O)[C@H](CC(C)C)NC(=O)[C@@H](N)CO)[C@@H](C)CC)C(N)=O (H-SLIGRLI-NH2) | 0.7 |
| CC[C@H](C)[C@H](NC(=O)[C@H](CC(C)C)NC(=O)c1coc(C)n1)C(=O)NCC(=O)N[C@@H](CCCNC(=N)N)C(=O)N[C@@H](Cc1ccc(I)cc1)C(N)=O ({Oxazole4CO(2-Me)}-LIGR[Phe(4-I)]-NH2) | 0.32 |
| CC[C@H](C)[C@H](NC(=O)[C@H](Cc1ccc(C(=O)O)cc1)NC(=O)[C@H](CCCNC(=N)N)NC(=O)CNC(=O)[C@@H](NC(=O)[C@H](CC(C)C)NC(=O)[C@@H](N)CO)[C@@H](C)CC)C(N)=O (H-SLIGR[Phe(4-COOH)]I-NH2) | 5 |
| CC[C@H](C)[C@H](N)C(=O)NC(=O)[C@H](Cc1ccc([N+](=O)[O-])cc1)NC(=O)[C@H](CCCNC(=N)N)NC(=O)CNC(=O)[C@@H](NC(=O)[C@H](CC(C)C)NC(=O)c1ccco1)[C@@H](C)CC (2Furoyl-LIGR-X1) | 0.2 |
| CC[C@H](C)[C@H](NC(=O)[C@H](Cc1cccc(OC)c1)NC(=O)[C@H](CCCNC(=N)N)NC(=O)CNC(=O)[C@@H](NC(=O)[C@H](CC(C)C)NC(=O)[C@@H](N)CO)[C@@H](C)CC)C(N)=O (H-SLIGR[Phe(3-OMe)]I-NH2) | 3.3 |
| CC[C@H](C)[C@H](NC(=O)[C@H](CC(C)C)NC(=O)[C@@H](N)CO)C(=O)NCC(=O)N[C@@H](CCCNC(=N)N)C(=O)N[C@@H](CC(C)C)C(=O)N[C@@H](Cc1ccc(F)cc1)C(N)=O (H-SLIGRL[Phe(4-F)]-NH2) | 2 |
| CC[C@H](C)[C@H](NC(=O)[C@H](Cc1cccnc1)NC(=O)[C@H](CCCNC(=N)N)NC(=O)CNC(=O)[C@@H](NC(=O)[C@H](CC(C)C)NC(=O)[C@@H](N)CO)[C@@H](C)CC)C(N)=O (H-SLIGR[3Pal]I-NH2) | 1.1 |
| CC[C@H](C)[C@H](NC(=O)[C@H](CC(C)C)NC(=O)[C@@H](N)CO)C(=O)NCC(=O)N[C@@H](CCCNC(=N)N)C(=O)N[C@@H](CC(C)C)C(N)=O (H-SLIGRL-NH2) | 4.2 |
| CC[C@H](C)[C@H](NC(=O)[C@H](Cc1csc2ccccc12)NC(=O)[C@H](CCCNC(=N)N)NC(=O)CNC(=O)[C@@H](NC(=O)[C@H](CC(C)C)NC(=O)[C@@H](N)CO)[C@@H](C)CC)C(N)=O (H-SLIGR[Bta]I-NH2) | 0.3 |
| CC[C@H](C)[C@H](NC(=O)[C@H](Cc1ccc(C#N)cc1)NC(=O)[C@H](CCCNC(=N)N)NC(=O)CNC(=O)[C@@H](NC(=O)[C@H](CC(C)C)NC(=O)[C@@H](N)CO)[C@@H](C)CC)C(N)=O (H-SLIGR[Phe(4-CN)]I-NH2) | 0.9 |

| SMILES | EC50 [µM] |
| --- | --- |
| CC[C@H](C)[C@H](NC(=O)[C@H](Cc1cccc(C#N)c1)NC(=O)[C@H](CCCNC(=N)N)NC(=O)CNC(=O)[C@@H](NC(=O)[C@H](CC(C)C)NC(=O)[C@@H](N)CO)[C@@H](C)CC)C(N)=O (H-SLIGR[Phe(3-CN)]I-NH2) | 1.7 |
| CC[C@H](C)[C@H](NC(=O)[C@H](CC(C)C)NC(=O)[C@@H](N)CO)C(=O)NCC(=O)N[C@@H](CCCNC(=N)N)C(=O)N[C@@H](CC(C)C)C(=O)N[C@@H](CCc1ccccc1)C(N)=O (H-SLIGRL[hPhe]-NH2) | 1 |
| CC[C@H](C)[C@H](NC(=O)[C@H](Cc1ccc(OC)c(OC)c1)NC(=O)[C@H](CCCNC(=N)N)NC(=O)CNC(=O)[C@@H](NC(=O)[C@H](CC(C)C)NC(=O)[C@@H](N)CO)[C@@H](C)CC)C(N)=O (H-SLIGR[Phe(3,4-(OMe)2)]I-NH2) | 1.3 |
| CC[C@H](C)[C@H](NC(=O)[C@H](Cc1ccncc1)NC(=O)[C@H](CCCNC(=N)N)NC(=O)CNC(=O)[C@@H](NC(=O)[C@H](CC(C)C)NC(=O)[C@@H](N)CO)[C@@H](C)CC)C(N)=O (H-SLIGR[4Pal]I-NH2) | 1.9 |
| CC[C@H](C)[C@H](NC(=O)[C@H](Cc1ccc(Cl)c(Cl)c1)NC(=O)[C@H](CCCN=C(N)N)NC(=O)CNC(=O)[C@@H](NC(=O)[C@H](CC(C)C)NC(=O)[C@@H](N)CO)[C@@H](C)CC)C(N)=O (H-SLIGR[Phe(3,4-Cl2)]I-NH2) | 0.3 |
| CC[C@H](C)[C@H](NC(=O)[C@H](Cc1ccccc1)NC(=O)[C@H](CCCNC(=N)N)NC(=O)CNC(=O)[C@@H](NC(=O)[C@H](CC(C)C)NC(=O)[C@@H](N)CO)[C@@H](C)CC)C(N)=O (H-SLIGRFI-NH2) | 1 |
| CC[C@H](C)[C@H](NC(=O)[C@H](Cc1ccc(O)cc1)NC(=O)[C@H](CCCN=C(N)N)NC(=O)CNC(=O)[C@@H](NC(=O)[C@H](CC(C)C)NC(=O)[C@@H](N)CO)[C@@H](C)CC)C(N)=O (H-SLIGRYI-NH2) | 0.4 |
| CC[C@H](C)[C@H](NC(=O)[C@H](Cc1ccc(I)cc1)NC(=O)[C@H](CCCNC(=N)N)NC(=O)CNC(=O)[C@@H](NC(=O)[C@H](CC(C)C)NC(=O)[C@@H](N)CO)[C@@H](C)CC)C(N)=O (H-SLIGR[Phe(4-I)]I-NH2) | 0.6 |
| CC[C@H](C)[C@H](NC(=O)[C@H](Cc1ccc(O)c([N+](=O)[O-])c1)NC(=O)[C@H](CCCNC(=N)N)NC(=O)CNC(=O)[C@@H](NC(=O)[C@H](CC(C)C)NC(=O)[C@@H](N)CO)[C@@H](C)CC)C(N)=O (H-SLIGR[Tyr(3-NO2)]I-NH2) | 1.4 |
| CC[C@H](C)[C@H](NC(=O)[C@H](Cc1ccc(Cl)cc1)NC(=O)[C@H](CCCNC(=N)N)NC(=O)CNC(=O)[C@@H](NC(=O)[C@H](CC(C)C)NC(=O)[C@@H](N)CO)[C@@H](C)CC)C(N)=O (H-SLIGR[Phe(4-Cl)]I-NH2) | 0.5 |
| CC[C@H](C)[C@H](NC(=O)[C@H](CC(C)C)NC(=O)[C@@H](N)CO)C(=O)NCC(=O)N[C@@H](CCCNC(=N)N)C(=O)N[C@@H](CC(C)C)C(=O)N[C@@H](CC1CCCCC1)C(N)=O (H-SLIGRL[Cha]-NH2) | 3.6 |
| CC[C@H](C)[C@H](NC(=O)[C@H](CC(C)C)NC(=O)[C@@H](N)CO)C(=O)NCC(=O)N[C@@H](CCCNC(=N)N)C(=O)N[C@@H](CC(C)C)C(=O)N[C@@H](CCc1ccc(O)cc1)C(N)=O (H-SLIGRL[hTyr]-NH2) | 0.6 |
| CC[C@H](C)[C@H](NC(=O)[C@H](Cc1cc([N+](=O)[O-])c(O)c([N+](=O)[O-])c1)NC(=O)[C@H](CCCNC(=N)N)NC(=O)CNC(=O)[C@@H](NC(=O)[C@H](CC(C)C)NC(=O)[C@@H](N)CO)[C@@H](C)CC)C(N)=O (H-SLIGR[Tyr(3,5-(NO2)2)]I-NH2) | 1.4 |
| CCCC[C@H](NC(=O)[C@H](CC(C)C)NC(=O)[C@H](CCCNC(=N)N)NC(=O)CNC(=O)[C@@H](NC(=O)[C@H](CC(C)C)NC(=O)[C@@H](N)CO)[C@@H](C)CC)C(N)=O (H-SLIGRL[Nle]-NH2) | 1.2 |
| CCOP(=O)(Cc1ccc(C[C@H](NC(=O)[C@H](CCCNC(=N)N)NC(=O)CNC(=O)[C@@H](NC(=O)[C@H](CC(C)C)NC(=O)[C@@H](N)CO)[C@@H](C)CC)C(=O)N[C@H](C(N)=O)[C@@H](C)CC)cc1)OCC (H-SLIGR[X2]I-NH2) | 1.3 |
| CC[C@H](C)[C@H](NC(=O)[C@H](Cc1ccc(N=[N+]=[N-])cc1)NC(=O)[C@H](CCCNC(=N)N)NC(=O)CNC(=O)[C@@H](NC(=O)[C@H](CC(C)C)NC(=O)[C@@H](N)CO)[C@@H](C)CC)C(N)=O (H-SLIGR[Phe(4-N3)]I-NH2) | 2.5 |
| CC[C@H](C)[C@H](NC(=O)[C@H](Cc1ccc(C(C)(C)C)cc1)NC(=O)[C@H](CCCNC(=N)N)NC(=O)CNC(=O)[C@@H](NC(=O)[C@H](CC(C)C)NC(=O)[C@@H](N)CO)[C@@H](C)CC)C(N)=O (H-SLIGR[Phe(4-tBu)]I-NH2) | 0.6 |

Reference: ChEMBL document CHEMBL1137449, “A refined agonist pharmacophore for protease activated receptor 2” (Bioorg Med Chem Lett, 2007)
